Measurements: patent publication US8329422B2, “Analysis of circulating tumor cells, fragments, and debris” (Veridex LLC, priority 2001, dated 2012)

Experiments:
Assay type in all cases: cell-based
[1] = Viability of LnCaP cells by trypan blue exclusion after culture with paclitaxel; conditions: human, LnCaP prostate cell line; LnCaP cells cultured with 40 nM paclitaxel for 72 hours
Protocol: (§1) To investigate the effect of apoptosis induced by cytotoxic agents on flow cytometric and CELLSPOTTER® analysis of CTC, cells from the prostate cell line LnCaP were cultured in the presence or absence of 40 nM paclitaxel for 72 hours. […] The treated and untreated LnCaP cells were spiked into blood of healthy donors, selected by the ferrofluid methods described above, and analyzed by the CELLSPOTTER® system.

[2] = system: LnCaP cells; test: CELLSPOTTER analysis of paclitaxel treated LnCaP cells spiked into blood of healthy donors (model to mimic tumor cell death); conditions: immunomagnetically selected
Protocol: as §1

[3] = system: LnCaP cells; test: M30 Cytodeath antibody staining of caspase-cleaved cytokeratin 18; conditions: paclitaxel treated LnCaP cells
Protocol: Cells of the prostate cell line LnCaP were cultured with or without paclitaxel and spiked into blood of healthy donors.

SMILES: CC(=O)O[C@H]1C(=O)[C@@]2(C)[C@H]([C@H](OC(=O)c3ccccc3)[C@]3(O)C[C@H](OC(=O)[C@H](O)[C@@H](NC(=O)c4ccccc4)c4ccccc4)C(C)=C1C3(C)C)[C@]1(OC(C)=O)CO[C@@H]1C[C@@H]2O [paclitaxel]
- viability at 72 h, 40 nM [1]: 33%
- signs of apoptosis (morphology, punctate cytokeratin staining) [2]: displayed signs of apoptosis
- staining with M30 Cytodeath antibody (early apoptosis) [3]: stained with M30
